Source: patent publication US6337345B1, “Insecticidal or miticidal combinations containing chlorfenapyr” (American Cyanamid Co., priority 1996, dated 2002)

Legend:
Assay type in all cases: in vivo
[1] = system: female imagines of Kanzawa spider mite (Tetranychus kanzawai kishida) which had acquired a strong resistance to chlorfenapyr; experiment: Miticidal effect on female imagines of chlorfenapyr-resistant Kanzawa spider mite, leaf disk spray test
Procedure: In this experiment, the miticidal effect against female imagines (adults) of Kanzawa spider mite (Tetranychus kanzawai kishida) which are registrant to chlorfenapyr is evaluated.
Round leaf disks (2 cm diameter) are cut out of a first leaf of kidney bean by a leaf punch and 4 sheets of the disks are placed on wet sanitary cotton in a plastic cup (8 cm diameter). On each leaf disk, 4 female imagines of Kanzawa spider mite (Tetranychus kanzawai kishida) which had acquired a strong resistance to chlorfenapyr are inoculated.
After the inoculation, chlorfenapyr and a compound(s) selected from group A are dispersed in water containing 200 ppm of an extender (Sorpol 3005X) and diluted such that a predetermined concentration of active ingredient is obtained. Each plastic cup is sprayed with 3.5 ml of a test solution with a rotary spray tower (Mizuho Scientific Co., Ltd.) and stored in a constant temperature chamber held at 25±1° C. (32 individuals are tested per concentration, 4−5 concentrations are evaluated per formulation, and 2 performances were repeated). Two days after treatment, the number of living and dead female imagines of Kanzawa spider mite (Tetranychus kanzawai kishida) which had acquired a strong resistance to chlorfenapyr is counted and the mortality (%) is calculated according the formula shown hereinbelow.
A co-toxicity coefficient is calculated by applying Sun and Johnson's formula (J. Econ. Ent., Vol 53, p. 887, […]) which is generally used to determine the degree of synergistic activity.
Co-toxicity coefficient=T^c [formula]
For T^c values greater than 100, the greater value indicates a stronger synergistic action. For a T^c value equal to 100, an additive action is indicated. For T^c values less than 100, the lesser value indicates a greater antagonistic action. A more detailed description of the calculation of the co-toxicity coefficient using the above-referenced Sun and Johnson formula follows.
The LC50 values of Test Compound A alone and Test Compound B alone and the LC50 value of the (A+B) mixture M is determined.
Actual toxicity index of mixture M=M^ti
Each LC50 value of effective ingredient A and effective ingredient B and the LC50 value of the mixture of A+B are used to determine the actual toxicity index as shown in the equation below. [formula]
Theoretical toxicity index of mixture M=Th.M^ti
Th.M^ti=(Toxicity index of A×%A in M+Toxicity index of B×%B in M)
Toxicity index of B=B^ti [formula]

[2] = system: susceptible strain of Kanzawa spider mite; experiment: LC50 against susceptible strain of Kanzawa spider mite
Source text: By comparison, the LC50 value for chlorfenapyr against a susceptible strain of Kanzawa spider mite is about 5 ppm.

[3] = system: female imagines of Kanzawa spider mite (Tetranychus kanzawai kishida) which had acquired a strong resistance to chlorfenapyr; experiment: Miticidal effect on female imagines of chlorfenapyr-resistant Kanzawa spider mite, leaf disk spray test; settings: resistant strain obtained by long artificial selection in the laboratory, compared with susceptible strain
[4] = single test compound, chlorfenapyr-resistant strain, female imago, mortality two days after treatment, probit analysis
[5] = single test compound, chlorfenapyr-resistant strain

Q: Which LC50 [1, 4] does the source give for C/C1=C\C[C@@H]2C[C@@H](C[C@]3(CC[C@H](C)[C@@H](C)O3)O2)OC(=O)[C@@H]2CC[C@@H](O)[C@H]3OC/C(=C\C=C\[C@H](C)C1)[C@]32O (mixture of isomers) [Milbemectin] here?
A: 0.28 ppm

Q: How did the “miticidal effect (in words)” value [1, 5] turn out when Cc1ccc(N=CN(C)C=Nc2ccc(C)cc2C)c(C)c1 [Amitraz, 3-methyl-1,5-bis(2,4-xylyl)-1,3,5-triazapenta-1,4-diene] was run?
A: low effects

Q: And the LC50 [1, 4]?
A: 200 ppm

Q: CCC(C)c1cc([N+](=O)[O-])cc([N+](=O)[O-])c1OC(=O)C=C(C)C (stereo not drawn) [Binapacryl, 2,4-dinitro-6-sec-butylphenyldimethyl-acrylate] was tested. Which LC50 [1, 4] did it give?
A: 180 ppm

Q: What does the source list for CCOCn1c(-c2ccc(Cl)cc2)c(C#N)c(Br)c1C(F)(F)F [Chlorfenapyr, 4-bromo-2-(4-chloropheny)-1-(ethoxymethyl)-5-(trifuloromethyl)pyrrole-3-carbonitrile]?
A: LC50 [2]: about 5 ppm; resistance to chlorfenapyr of the resistant strain [3]: ~300 fold; LC50 [1, 4]: 1500 ppm

Q: For CN(C)C(=O)SCCCCOc1ccccc1 [Fenothiocarb, S-4-phenoxybutyl-dimethylthiocarbamate], which LC50 [1, 4] is on record?
A: 1000 ppm

Q: OC(c1ccc(Cl)cc1)(c1ccc(Cl)cc1)C(Cl)(Cl)Cl [Kelthane (Dicofol)] was tested. Which “miticidal effect (in words)” value [1, 5] did it give?
A: high miticidal effect

Q: What about the LC50 [1, 4] of the same compound?
A: 32 ppm

Q: With CC(C)OC(=O)C(O)(c1ccc(Br)cc1)c1ccc(Br)cc1 [Phenisobromalate, isopropyl 4,4′-dibromobenzilate] as the compound, how does the “miticidal effect (in words)” value [1, 5] read?
A: low effects

Q: What about the LC50 [1, 4] of the same compound?
A: 280 ppm

Q: With CCOCCc1ccc(OCCNc2ncnc(CC)c2Cl)c(C)c1C [Pyrimidifen, 5-chloro-N-{2-[2,3-dimethyl-4-(2-ethoxyethyl)phenoxy]ethyl}-6-ethyl-4-pyrimidinamine] as the compound, how does the LC50 ([1]; in vivo) read?
A: 10 ppm

Q: And the “miticidal effect (in words)” value [1, 5]?
A: high miticidal effect

Q: Which results are given for O=S(=O)(c1ccc(Cl)cc1)c1cc(Cl)c(Cl)cc1Cl [Tetradifon, 2,4,5,4′-tetrachlorodiphenyisulfone]?
A: miticidal effect (in words) [1, 5]: low miticidal effect; LC50 [1, 4]: 4900 ppm

Q: With “dinitromethylheptylphenyl crotonate [DPC]” as the compound, how does the “miticidal effect (in words)” value [1, 5] read?
A: low effects

Q: What about the LC50 [1, 4] of the same compound?
A: 630 ppm
